According to patent publication US20220112225A1, “ANANDAMIDE COMPOUNDS” (priority 2019, published 2022):

Assays:
[1] = In vitro brain homogenate stability, rat; format: in vitro ADME
Procedure: (§1) Fresh rodents brains were snap frozen immediately after collection and the assay performed on the same day. Brains were pre-incubated at 37° C. before being spiked with test compound at 1 μM. Samples were collected across 6 time points (0, 10, 20, 30, 45 and 60 minutes) and crashed in cold acetonitrile containing an internal standard (Leucine Enkephalin) and kept on ice until all samples had been collected. The samples were then shaken and centrifuged. 100 μL of supernatant was transferred to a plate containing 50 μL of MilliQ water and mixed. These plates were analyzed by LC-MS/MS over the 6 time points, where the percentage of test compound remaining was calculated using the peak area of the initial timepoint (T=0 minutes) as 100%. The natural log of the percentage remaining was then calculated. The natural log of the percentage remaining versus time (minutes) was plotted on a graph and the gradient of this graph was used to calculate the elimination rate constant (K), The half-life (t1/2) of test compound was calculated using the natural log of 2 divided by the elimination rate constant. The percentage of Compound 2 formed is reported below in Tables 4-6. FIGS. 9A-9F show results of the brain homogenate stability conducted with representative compounds of the Examples.

[2] = In vitro brain homogenate stability, mouse; format: in vitro ADME
Procedure: as §1

hMfsd2a = target: T1, hMfsd2a (Homo sapiens, UniProt Q8NA29); assay: In vitro Mfsd2a transport, thin layer chromatography (TLC) analysis; format: cell-based; conditions: transfected HEK293 cells, 50 μM test compound, 1 hour, iodine and cupric acetate stain
T1 construct: expressed in transfected cells; host or cells: HEK293
T1 sequence (Q8NA29 1-530 isoform Q8NA29-2): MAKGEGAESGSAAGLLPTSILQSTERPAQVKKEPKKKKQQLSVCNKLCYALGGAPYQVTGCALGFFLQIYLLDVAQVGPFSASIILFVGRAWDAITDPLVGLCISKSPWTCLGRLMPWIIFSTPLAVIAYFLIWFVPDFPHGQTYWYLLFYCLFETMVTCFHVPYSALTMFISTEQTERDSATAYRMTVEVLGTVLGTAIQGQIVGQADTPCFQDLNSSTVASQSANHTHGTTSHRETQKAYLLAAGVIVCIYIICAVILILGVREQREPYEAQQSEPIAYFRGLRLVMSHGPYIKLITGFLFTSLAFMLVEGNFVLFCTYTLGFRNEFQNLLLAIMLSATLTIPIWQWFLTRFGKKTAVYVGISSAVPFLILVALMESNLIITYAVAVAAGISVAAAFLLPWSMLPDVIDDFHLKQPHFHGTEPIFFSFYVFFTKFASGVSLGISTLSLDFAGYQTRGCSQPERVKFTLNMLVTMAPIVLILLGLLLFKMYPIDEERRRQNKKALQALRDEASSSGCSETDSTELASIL
Procedure: The assay was conducted in a low throughput 6-well format with HEK293 cells prepared and then transfected in duplicate wells with plasmids containing either the wildtype (WT) version of hMfsd2a, the D97A mutant version, or an empty vector as control. Uptake into the ceils was assessed by both thin-layer chromatography (TLC) and ultrahigh performance liquid chromatography hyphenated mass spectrometry.
HEK293 cells were seeded at 6.25×10^5 per 6-well in 2 mL of DMEM with 10% FBS and 1% penicillin-streptomycin (P/S) media (Sigma) and incubated overnight at 37° C. in 5% CO2. Cells were checked for confluency the next morning. On a per well basis the following lipid mix was generated, 6 μL of Lipofectamine 2000 was added dropwise to 200 μL of OptiMEM, this was left to stand for 5 minutes at room temperature (RT). 1 μg of hMfsd2a WT, D97A or empty plasmid was prepared in 200 μL of OptiMEM as appropriate for each well; the Lipofectamine 2000 in OptiMEM solution was then added dropwise to a total volume of 400 μL (this can be scaled to support the number of wells/plates to be assayed). This transfection preparation was then incubated at RT for 20 minutes. DMEM with 10% FBS and no P/S media was warmed to 37° C., the HEK293 plate media was changed and the cells washed carefully with 1 mL of the warmed DMEM with 10% FBS no P/S media, 1.6 mL of the warmed DMEM with 10% FBS no P/S media was then added to each well. 400 μL of the transfection preparation was then added dropwise to each well as appropriate and the plate was gently swirled in a circular motion. The plate was then incubated overnight at 37° C. in 5% CO2.
Compound Incubation and Preparation of Analysis Samples Compound stock solutions were prepared in a 12% BSA in PBS solution such that a 40 μL spike into 2 ml, of plain DMEM would yield a concentration of 50 μM of test compound (the compound treated media). Remaining compound stock solution in 12% BSA in PBS was frozen at −20° C. to allow for media stability testing. The HEK293 6-well plate was removed from the incubator and the wells gently rinsed with 1 mL of plain DMEM that had been prewarmed to 37° C. 2 mL of the compound treated media was then added to each well. A 100 μL sample of the compound treated media was sampled to represent a T=0 h sample; 5 μL of this sample (the remainder was reserved and frozen in case of re-analysis being required) was diluted with 45 μL of DMEM and crashed with 50 μL MeCN in a 96-well plate which was sealed and kept on ice. The HEK293 6-well plate was then incubated at 37° C. in 5% CO2 for 1 hour, the plate was then removed from the incubator and a 100 μL sample of media taken from each well to represent a T=1 h sample; 5 μL of this sample (the remainder was reserved and frozen in case of re-analysis being required) was diluted with 45 μL of DMEM and crashed with 50 μL MeCN into the 96-well plate which was re-sealed and stored at −20° C. The remaining media was then removed from the HEK293 6-well plate, the wells were gently rinsed twice with 1 mL of 0.5% BSA in DMEM, the media was then removed and the 6-well plate allowed to dry completely at RT. 1 ml of 3:2 Hexane:Isopropanol (HIP) was added to each well in a fume cupboard and the plate allowed to stand for 30 minutes at RT without shaking. The HIP solution was then transferred to 2 mL Eppendorf tubes, and the process was repeated with a second 1 mL aliquot of HIP and the two aliquots combined. The HIP samples were then dried down under a nitrogen stream.
Silica gel plates were prepared in a fume cupboard by initially drawing a line 1.5 cm from the bottom edge of the plate and then drawing sample lanes with a width of 1 cm and a separation of 0.5 cm between lanes. TLC buffer for phospholipids was prepared as a 31:62:7 solvent mix of Methanol:Chloroform:Ammonium Hydroxide. Plates were pre-run in a humid chamber containing 200 mL of the TLC buffer until the solvent front was 1.5 cm from the plate edge, the plate was then allowed to dry. […]

[3] = one hour incubation, increasing formation of Compound 2

2-(5Z,8Z,11Z,14Z)-icosa-5,8,11,14-tetraenamidoethyl (trimethylammonio) ethylphosphate [Compound 3]
Rat t1/2 ([1]; 37° C., test compound at 1 μM): 0.933 h | Clearance in brain homogenate stability study (in words) [1, 3]: demonstrated a level of clearance | Mouse t1/2 ([2]; 37° C., test compound at 1 μM): 1.67 h | Clearance in brain homogenate stability study (in words) [2, 3]: demonstrated a level of clearance | Transport via Mfsd2a: TLC band intensity in WT cells compared with D97A mutant Mfsd2a and/or empty vector cells (hMfsd2a): transported via Mfsd2a
